Biological target: T1, MELK (Homo sapiens, UniProt Q14680)
T1 construct: purchased Thermo Fisher Scientific (Life Technologies) SelectScreen
Experiment: SelectScreen Z'LYTE
Type: biochemical
Outline: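 NU5455 was profiled across the SelectScreen Broad panel of kinase activity and binding assays. Z'LYTE reactions such as CSF1R ran at apparent Km ATP, while the Adapta CAMK1 assay used ATP listed as 10. Values are given as percent.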

T1 sequence (Q14680 whole entry): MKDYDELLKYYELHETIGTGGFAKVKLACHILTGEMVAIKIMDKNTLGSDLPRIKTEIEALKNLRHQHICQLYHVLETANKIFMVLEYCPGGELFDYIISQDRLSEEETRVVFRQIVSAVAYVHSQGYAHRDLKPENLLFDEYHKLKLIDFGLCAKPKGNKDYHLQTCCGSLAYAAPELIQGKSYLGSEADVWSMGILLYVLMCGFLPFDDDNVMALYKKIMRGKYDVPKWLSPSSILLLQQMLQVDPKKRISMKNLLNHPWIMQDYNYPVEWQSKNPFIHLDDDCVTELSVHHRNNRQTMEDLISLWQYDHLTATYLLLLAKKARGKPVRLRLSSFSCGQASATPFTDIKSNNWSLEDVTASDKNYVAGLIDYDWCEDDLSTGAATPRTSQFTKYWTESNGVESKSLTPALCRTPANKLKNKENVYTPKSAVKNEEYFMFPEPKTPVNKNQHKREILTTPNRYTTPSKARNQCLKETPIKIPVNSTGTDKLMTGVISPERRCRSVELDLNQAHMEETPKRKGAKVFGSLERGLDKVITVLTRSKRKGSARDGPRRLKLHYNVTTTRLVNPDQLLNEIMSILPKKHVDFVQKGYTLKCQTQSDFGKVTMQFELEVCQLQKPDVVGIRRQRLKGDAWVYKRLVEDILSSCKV

## CN(C(=O)CN1CCOCC1)c1ccc2sc3c(-c4cccc5c(=O)cc(N6CC7CCC(C6)O7)oc45)cccc3c2c1 [NU5455]
  inhibition at 1 µM: -11.8%

Source: PMC6934184, “Selective DNA-PKcs inhibition extends the therapeutic index of localized radiotherapy and chemotherapy” (The Journal of Clinical Investigation, 2019)
